Test results as given in patent publication US10294212B2 (CURADEV PHARMA PRIVATE LTD., priority 2013, dated 2019).
Structures can show the parent of a compound that is named as a salt.

Key:
[1] = molecular target: Human indoleamine 2,3-dioxygenase1 (hIDO1) (Homo sapiens (Human), UniProt P14902); test: In-vitro IDO1 enzyme assay (conversion of L-tryptophan to KYN); format: biochemical; details: read-out: IC50 (IDO1) Enz
From the text: Human indoleamine 2,3-dioxygenasel (hIDO1) catalyzes the oxidative cleavage of the pyrrole ring of the indole nucleus of tryptophan to yield N-formylkynurenine which can be converted to kynurenine (KYN) by deformylation. hIDO1 with an N-terminal His tag, expressed and purified from E. coli cells was procured from either Enzo LifeScienccs, NY, USA). Unless otherwise stated, all materials were procured from Sigma Aldrich, Mo., USA.
The assay monitoring the conversion of L-tryptophan to KYN was carried out as follows. hIDO1 (10 nM) was incubated with tryptophan (30 μM) in the presence of ascorbic acid (20 mM), methylene blue (10 μM) and catalase (100 μg/mL) in potassium phosphate buffer (50 mM; pH 6.5) at 37C for 30 min. The reaction was terminated with 30% trichloroacetic acid (TCA) and further incubated at 65C for 15 min to fully convert N-formylkynurenine to KYN. The reaction mixture was then centrifuged to remove sediments and the KYN in the supernatant was estimated by UV-visible absorption spectroscopy at 360 nm using a Waters HPLC system fitted with a C-18 column or by LC/MS/MS. See, Sono, 1980, J. Biol. Chem., 255:1339-1345, which is herein incorporated by reference.
Percent inhibition at each concentration of test compounds was determined by estimating the decrease in KYN with reference to the reaction control with 1% DMSO vehicle. Data were analyzed using nonlinear regression to generate IC50 values using Graph Pad Prism® 5.

[2] = molecular target: Human TDO (hTDO)-transfected CHO-K1 cells (Homo sapiens (Human), UniProt P48775); test: CHO-K1 cell based TDO assay; details: hTDO cellular assay
Experimental: Human TDO (hTDO)-transfected CHO-K1 cells were used to identify test compounds that inhibit TDO activity and reduce Kynurenine production. CHO-K1 cells (ATCC) were cultured in DMEM supplemented with sodium bicarbonate (2.1 g/L), HEPES (4.1 g/L), L-glutamine (2 mM), non-essential amino acid (84 mg/L) and fetal bovine serum (10%) and maintained at 95% humidity and 5% CO2 in a 37° C. incubator. The TDO gene (TDO2) (Accession number NM_005651.1) was purchased from Origene (USA) and stably expressed in CHO-Kl cells using the expression vector pcDNA4/Myc-HisB Hygro (Life Technologies, USA). TDO-expressing clones were identified based on the kynurenine production by the cells. Expanded clones were used for assay as described below. Unless otherwise stated, all materials were procured from Sigma.
hTDO transfected CHO-K1 cells (0.05 million/well) were seeded in a 96-well plate and maintained overnight in DMEM containing 10% FBS (200 μL) at 95% humidity and 5% CO2 in a 37° C. incubator. The following day, cells were washed and incubated with test compounds (typically 31 μM to 10 nM, final volume 150 μL) in Hanks Balanced Salt Solution (HBSS) containing 80 μM L-tryptophan for 2 hours. Supernatant (150 μL) from the cells was treated with 30% TCA ([…]) to precipitate proteins. Supernatants were further incubated at 65° C. for 15 min to convert N-formylkynurenine to kynurenine. KYN in the supernatant was measured by LC/MS/MS using an API4000 mass spectrometer (Applied Biosystems) coupled to a Shimadzu Prominence LC system fitted with a C18 column.
Percent inhibition of the test compounds was determined by measuring the decrease in KYN as compared to the reaction control (DMSO vehicle). IC50 values were calculated using Graph Pad Prism® 5 as described above.

Sequence of Human indoleamine 2,3-dioxygenase1 (hIDO1) (P14902 whole entry): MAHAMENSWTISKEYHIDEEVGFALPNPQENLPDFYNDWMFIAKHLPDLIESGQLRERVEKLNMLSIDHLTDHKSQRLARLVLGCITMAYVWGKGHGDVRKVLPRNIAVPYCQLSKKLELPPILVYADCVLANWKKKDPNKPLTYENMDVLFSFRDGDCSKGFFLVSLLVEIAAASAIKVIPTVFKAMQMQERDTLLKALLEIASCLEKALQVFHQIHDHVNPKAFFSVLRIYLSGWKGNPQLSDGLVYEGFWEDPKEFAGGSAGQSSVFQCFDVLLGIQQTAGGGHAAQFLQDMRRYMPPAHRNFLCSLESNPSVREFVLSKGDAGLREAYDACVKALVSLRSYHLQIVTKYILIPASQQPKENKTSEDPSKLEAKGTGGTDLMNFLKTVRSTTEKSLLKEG
Sequence of Human TDO (hTDO)-transfected CHO-K1 cells (P48775 whole entry): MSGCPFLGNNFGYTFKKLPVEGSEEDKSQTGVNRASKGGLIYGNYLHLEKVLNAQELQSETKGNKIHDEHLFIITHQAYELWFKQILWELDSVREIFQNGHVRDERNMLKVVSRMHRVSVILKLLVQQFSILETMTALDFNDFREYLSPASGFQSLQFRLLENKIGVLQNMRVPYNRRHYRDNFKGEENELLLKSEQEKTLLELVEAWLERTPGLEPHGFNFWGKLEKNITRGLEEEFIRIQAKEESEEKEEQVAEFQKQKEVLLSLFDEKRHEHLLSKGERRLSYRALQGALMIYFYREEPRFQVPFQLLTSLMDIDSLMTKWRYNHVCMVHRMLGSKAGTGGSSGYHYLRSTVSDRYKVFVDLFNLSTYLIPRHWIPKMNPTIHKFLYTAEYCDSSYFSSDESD

`Nc1oc2cnccc2c1Nc1ccc(Cc2ccccc2)cc1` [Compound 23, N^3-(4-Benzylphenyl)furo[2,3-c]pyridine-2,3-diamine] was tested, and the IC50 [1] was greater than 1000 nM and the IC50 [2] was 500 to 2000 nM.

For `Nc1oc2cnccc2c1Nc1ccc(C(F)(F)F)cc1` [Compound 6, N^3-(4-(Trifluoromethyl)phenyl)furo[2,3-c]pyridine-2,3-diamine], the IC50 [1] was greater than 1000 nM and the IC50 [2] was 500 to 2000 nM.

For `Nc1oc2cnccc2c1Nc1ccc(Cl)cc1Cl` [Compound 7, N^3-(2,4-Dichlorophenyl)furo[2,3-c]pyridine-2,3-diamine], the IC50 [1] was greater than 1000 nM and the IC50 [2] was greater than 2000 nM.

Compound `COc1ccc(Nc2c(N)oc3cnccc23)c(OC)c1` [Compound 34, N^3-(2,4-Dimethoxyphenyl)furo[2,3-c]pyridine-2,3-diamine] has an IC50 [1] greater than 1000 nM and an IC50 [2] greater than 2000 nM.

With `CC(C)Oc1cc2c(Nc3ccc(F)c(Cl)c3)c(N)oc2c(-c2ccccc2)n1` [Compound 107, N^3-(3-Chloro-4-fluorophenyl)-5-isopropoxy-7-phenylfuro[2,3-c]pyridine-2,3-diamine] the IC50 [1] was greater than 1000 nM and the IC50 [2] was greater than 2000 nM.

`Nc1sc2ccccc2c1Nc1ccc(F)c(C(F)(F)F)c1` [Compound 128, N^3-(4-Fluoro-3-(trifluoromethyl)phenyl)benzo[b]thiophene-2,3-diamine] was tested, and the IC50 [1] was less than 200 nM and the IC50 [2] was greater than 2000 nM.

For `Nc1oc2cnccc2c1Nc1ccc(I)c(Cl)c1` [Compound 18, N^3-(3-Chloro-4-iodophenyl)furo[2,3-c]pyridine-2,3-diamine], the IC50 [1] was greater than 1000 nM and the IC50 [2] was 500 to 2000 nM.

`CCOC(=O)Nc1oc2cnccc2c1N(C(=O)OCC)c1ccc(F)c(Cl)c1` [Compound 142, Ethyl (3-chloro-4-fluorophenyl)(2-((ethoxycarbonyl)amino)furo-[2,3-c]pyridin-3-yl)carbamate] showed an IC50 [1] greater than 1000 nM and an IC50 [2] greater than 2000 nM.

`Nc1oc2cnccc2c1Nc1ccc(Oc2ccccc2)cc1` [Compound 29, N^3-(4-Phenoxyphenyl)furo[2,3-c]pyridine-2,3-diamine] was tested, and the IC50 [1] was greater than 1000 nM and the IC50 [2] was greater than 2000 nM.

In the case of `CCOC(=O)Nc1oc2c(-c3ccc(C(N)=O)cc3)nccc2c1Nc1ccc(F)c(Cl)c1` [Compound 157, Ethyl (7-(4-carbamoylphenyl)-3-((3-chloro-4-fluorophenyl)amino)furo[2,3-c]pyridin-2-yl)carbamate], the IC50 [1] is reported as greater than 1000 nM and the IC50 [2] is reported as greater than 2000 nM.

`Nc1oc2cnccc2c1Nc1ccc(Cl)cc1` [Compound 17, N^3-(4-Chlorophenyl)furo[2,3-c]pyridine-2,3-diamine] gave an IC50 [1] greater than 1000 nM and an IC50 [2] of 500 to 2000 nM.

Work on `CN(c1ccccc1)c1c(N)sc2ccccc12` [Compound 135, N^3-Methyl-N^3-phenylbenzo[b]thiophene-2,3-diamine hydrochloride] yielded an IC50 [1] greater than 1000 nM and an IC50 [2] greater than 2000 nM.

`Cc1cc(-c2cccc3c(Nc4ccccc4)c(N)sc23)ccn1` [Compound 265, 7-(2-Methylpyridin-4-yl)-N^3-phenylbenzo[b]thiophene-2,3-diamine] was tested, and the IC50 [1] was less than 200 nM and the IC50 [2] was 500 to 2000 nM.

Work on `[NH]c1sc2ccc(Cl)cc2c1Nc1ccc(F)c(C(F)(F)F)c1` [Compound 129, hydrochloride] yielded an IC50 [1] of 200 to 1000 nM and an IC50 [2] greater than 2000 nM.

With `CC(C)(C)c1cc(Nc2c(N)oc3cnccc23)cc(C(C)(C)C)c1` [Compound 32, N^3-(3,5-Di-tert-butylphenyl)furo[2,3-c]pyridine-2,3-diamine] the IC50 [1] was greater than 1000 nM and the IC50 [2] was 500 to 2000 nM.

Compound `Cc1ncc(CO)c2c(Nc3ccc(F)c(Cl)c3)c(N)oc12` [Compound 56, (2-amino-3-((3-chloro-4-fluorophenyl)amino)-7-methylfuro[2,3-c]pyridin-4-yl)methanol] has an IC50 [1] greater than 1000 nM and an IC50 [2] greater than 2000 nM.

For `CCOC(=O)Nc1oc2c(-c3cccc(C#N)c3)nccc2c1N(C(=O)OCC)c1ccc(F)c(Cl)c1` [Compound 146, Ethyl (3-chloro-4-fluorophenyl)(7-(3-cyanophenyl)-2-((ethoxycarbonyl)amino)furo[2,3-c]pyridin-3-yl)carbamate], the IC50 [1] was greater than 1000 nM and the IC50 [2] was greater than 2000 nM.

`CCOC(=O)Nc1oc2c(I)nccc2c1N(C(=O)OCC)c1ccc(F)c(Cl)c1` [Compound 156, Ethyl (3-chloro-4-fluorophenyl)(2-((ethoxycarbonyl)amino)-7-iodofuro[2,3-c]pyridin-3-yl)carbamate] showed an IC50 [1] greater than 1000 nM and an IC50 [2] greater than 2000 nM.

With `Nc1oc2cnccc2c1Nc1cccc(-c2ccccc2)c1` [Compound 53, N^3-([1,1′-Biphenyl]-3-yl)furo[2,3-c]pyridine-2,3-diamine] the IC50 [1] was greater than 1000 nM and the IC50 [2] was greater than 2000 nM.

With `Nc1sc2ccccc2c1Sc1cccc(Cl)c1` [Compound 122, 3-((3-Chlorophenyl)thio)benzo[b]thiophen-2-amine] the IC50 [1] was greater than 1000 nM and the IC50 [2] was greater than 2000 nM.

In the case of `Cc1cc(-c2cccc3c(Nc4ccc(F)cc4)c(N)sc23)ccn1` [Compound 266, N^3-(4-Fluorophenyl)-7-(2-methylpyridin-4-yl)benzo[b]thiophene-2,3-diamine], the IC50 [1] is reported as less than 200 nM and the IC50 [2] is reported as 500 to 2000 nM.

Work on `Nc1oc2cnccc2c1Nc1cccc(Cc2ccccc2)c1` [Compound 75, N^3-(3-Benzylphenyl)furo[2,3-c]pyridine-2,3-diamine] yielded an IC50 [1] greater than 1000 nM and an IC50 [2] greater than 2000 nM.

`CCOC(=O)Nc1oc2c(-c3ccncc3)nccc2c1N(C(=O)OCC)c1ccc(F)c(C(F)(F)F)c1` [Compound 193, Ethyl (2-((ethoxycarbonyl)amino)-7-(pyridin-4-yl)furo[2,3-c]pyridin-3-yl)(4-fluoro-3-(trifluoromethyl)phenyl)carbamate] was tested, and the IC50 [1] was greater than 1000 nM and the IC50 [2] was greater than 2000 nM.

Work on `Nc1oc2cnccc2c1Nc1cccc(CC2CCC2)c1` [Compound 89, N^3-(3-(Cyclobutylmethyl)phenyl)furo[2,3-c]pyridine-2,3-diamine] yielded an IC50 [1] greater than 1000 nM and an IC50 [2] greater than 2000 nM.

In the case of `Nc1oc2cnccc2c1Nc1ccccc1N1CCCCC1` [Compound 24, N^3-(2-(Piperidin-1-yl)phenyl)furo[2,3-c]pyridine-2,3-diamine], the IC50 [1] is reported as greater than 1000 nM and the IC50 [2] is reported as greater than 2000 nM.

`CC(C)(C)c1cccc(Nc2c(N)oc3cnccc23)c1` [Compound 61, N^3-(3-(tert-Butyl)phenyl)furo[2,3-c]pyridine-2,3-diamine] showed an IC50 [1] greater than 1000 nM and an IC50 [2] greater than 2000 nM.

`COC(=O)Nc1oc2cnccc2c1Nc1ccc(F)c(Cl)c1` [Compound 143, Methyl (3-((3-chloro-4-fluorophenyl)amino)furo[2,3-c]pyridin-2-yl)carbamate] was tested, and the IC50 [1] was greater than 1000 nM and the IC50 [2] was greater than 2000 nM.

In the case of `Nc1oc2cnccc2c1Nc1ccc(F)c(Cl)c1Cl` [Compound 45, N^3-(2,3-Dichloro-4-fluorophenyl)furo[2,3-c]pyridine-2,3-diamine], the IC50 [1] is reported as greater than 1000 nM and the IC50 [2] is reported as greater than 2000 nM.

`Nc1oc2cnccc2c1Nc1cc(F)c(F)cc1F` [Compound 12, N^3-(2,4,5-Trifluorophenyl)furo[2,3-c]pyridine-2,3-diamine] gave an IC50 [1] greater than 1000 nM and an IC50 [2] greater than 2000 nM.

Compound `Nc1sc2ccccc2c1Oc1cccc(Cl)c1` [Compound 127, 3-(3-Chlorophenoxy)benzo[b]thiophen-2-amine hydrochloride] has an IC50 [1] greater than 1000 nM and an IC50 [2] greater than 2000 nM.

Work on `N#Cc1ccc2c(Nc3ccc(F)c(Cl)c3)c(N)sc2c1` [Compound 136, 2-Amino-3-((3-chloro-4-fluorophenyl)amino)benzo[b]thiophene-6-carbonitrile] yielded an IC50 [1] greater than 1000 nM and an IC50 [2] greater than 2000 nM.

For `CC(=O)c1ccc(Nc2c(N)oc3cnccc23)cc1` [Compound 41, 1-(4-((2-Aminofuro[2,3-c]pyridin-3-yl)amino)phenyl)ethanone], the IC50 [1] was greater than 1000 nM and the IC50 [2] was 500 to 2000 nM.

`Nc1oc2cnccc2c1Nc1ccc(N2CCOCC2)cc1` [Compound 11, N^3-(4-Morpholinophenyl)furo[2,3-c]pyridine-2,3-diamine] gave an IC50 [1] greater than 1000 nM and an IC50 [2] greater than 2000 nM.

`Nc1oc2cnccc2c1Nc1cccnc1` [Compound 49, N^3-(Pyridin-3-yl)furo[2,3-c]pyridine-2,3-diamine] was tested, and the IC50 [1] was greater than 1000 nM and the IC50 [2] was 500 to 2000 nM.
